Reference: PubChem BioAssay (NCI)
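Tested at 5 concentrations; 48 h exposure; 96-well plates; endpoints linearly interpolated, else capped at highest concentration. The concentration for 50% growth inhibition is given as GI50. TGI: concentration producing complete growth inhibition.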

Tests used:
Test in all cases: DTP human tumour cell line panel, 48 h; in the data active = GI50 below about 0.43 µM; inactive = the rest
TK-10 renal = test system: TK-10 renal
M14 melanoma = test system: M14 melanoma
A549 NSCLC = test system: A549 NSCLC
OVCAR-3 ovarian = test system: OVCAR-3 ovarian
786-0 renal = test system: 786-0 renal
K-562 leukemia = test system: K-562 leukemia
SNB-19 CNS = test system: SNB-19 CNS
SW-620 colon = test system: SW-620 colon
NCI-H23 lung = test system: NCI-H23 lung
HT29 colon = test system: HT29 colon
T-47D breast = test system: T-47D breast
MDA-MB-231 breast = test system: MDA-MB-231 breast
NCI/ADR-RES ovarian = test system: NCI/ADR-RES ovarian
UACC-62 melanoma = test system: UACC-62 melanoma
SF-268 CNS = test system: SF-268 CNS
OVCAR-5 ovarian = test system: OVCAR-5 ovarian
CAKI-1 renal = test system: CAKI-1 renal
RPMI-8226 leukemia = test system: RPMI-8226 leukemia
PC-3 prostate = test system: PC-3 prostate
SK-MEL-5 melanoma = test system: SK-MEL-5 melanoma
UO-31 renal = test system: UO-31 renal
MALME-3M melanoma = test system: MALME-3M melanoma
MCF7 breast = test system: MCF7 breast
SNB-75 CNS = test system: SNB-75 CNS
LOX IMVI melanoma = test system: LOX IMVI melanoma
UACC-257 melanoma = test system: UACC-257 melanoma
MDA-MB-435 = test system: MDA-MB-435
SR leukemia = test system: SR leukemia
NCI-H460 lung = test system: NCI-H460 lung
SK-OV-3 ovarian = test system: SK-OV-3 ovarian
COLO 205 colon = test system: COLO 205 colon
HOP-62 NSCLC = test system: HOP-62 NSCLC
SK-MEL-28 melanoma = test system: SK-MEL-28 melanoma
SF-295 CNS = test system: SF-295 CNS
IGROV1 ovarian = test system: IGROV1 ovarian
HCC-2998 colon = test system: HCC-2998 colon
NCI-H522 lung = test system: NCI-H522 lung
KM12 colon = test system: KM12 colon
HCT-15 colon = test system: HCT-15 colon
HCT-116 colon = test system: HCT-116 colon
NCI-H226 lung = test system: NCI-H226 lung
HS 578T breast = test system: HS 578T breast
U251 CNS = test system: U251 CNS
ACHN renal = test system: ACHN renal
CCRF-CEM leukemia = test system: CCRF-CEM leukemia
OVCAR-4 ovarian = test system: OVCAR-4 ovarian
OVCAR-8 ovarian = test system: OVCAR-8 ovarian
SN12C renal = test system: SN12C renal
SK-MEL-2 melanoma = test system: SK-MEL-2 melanoma
DU-145 prostate = test system: DU-145 prostate
EKVX NSCLC = test system: EKVX NSCLC
HL-60(TB) leukemia = test system: HL-60(TB) leukemia
BT-549 breast = test system: BT-549 breast
SF-539 CNS = test system: SF-539 CNS
HOP-92 NSCLC = test system: HOP-92 NSCLC
MOLT-4 leukemia = test system: MOLT-4 leukemia
RXF 393 renal = test system: RXF 393 renal
A498 renal = test system: A498 renal

COC(=O)c1ccc2c(c1)C(=O)c1c-2n(CCCCl)c(=O)c2cc(OC)c(OC)cc12
> 100 µM: TGI (TK-10 renal) | TGI (M14 melanoma) | TGI (A549 NSCLC) | TGI (OVCAR-3 ovarian) | TGI (786-0 renal) | TGI (K-562 leukemia) | TGI (SNB-19 CNS) | TGI (SW-620 colon) | TGI (NCI-H23 lung) | TGI (HT29 colon) | TGI (T-47D breast) | TGI (MDA-MB-231 breast) | TGI (NCI/ADR-RES ovarian) | TGI (UACC-62 melanoma) | TGI (SF-268 CNS) | TGI (OVCAR-5 ovarian) | TGI (CAKI-1 renal) | TGI (RPMI-8226 leukemia) | TGI (PC-3 prostate) | TGI (SK-MEL-5 melanoma) | TGI (UO-31 renal) | TGI (MALME-3M melanoma) | TGI (MCF7 breast) | TGI (LOX IMVI melanoma) | TGI (UACC-257 melanoma) | TGI (MDA-MB-435) | TGI (SR leukemia) | TGI (NCI-H460 lung) | TGI (SK-OV-3 ovarian) | TGI (COLO 205 colon) | TGI (HOP-62 NSCLC) | TGI (SK-MEL-28 melanoma) | TGI (SF-295 CNS) | TGI (IGROV1 ovarian) | TGI (HCC-2998 colon) | TGI (NCI-H522 lung) | TGI (KM12 colon) | TGI (HCT-15 colon) | TGI (HCT-116 colon) | TGI (NCI-H226 lung) | TGI (HS 578T breast) | TGI (U251 CNS) | TGI (ACHN renal) | TGI (CCRF-CEM leukemia) | TGI (OVCAR-4 ovarian) | TGI (OVCAR-8 ovarian) | TGI (SN12C renal) | TGI (SK-MEL-2 melanoma) | TGI (DU-145 prostate) | TGI (EKVX NSCLC)
inactive: GI50 (TK-10 renal) > 100 µM | GI50 (M14 melanoma) > 100 µM | GI50 (A549 NSCLC) > 100 µM | GI50 (OVCAR-3 ovarian) > 100 µM | GI50 (786-0 renal) > 100 µM | GI50 (K-562 leukemia) > 100 µM | GI50 (SNB-19 CNS) > 100 µM | GI50 (SW-620 colon) > 100 µM | GI50 (NCI-H23 lung) > 100 µM | GI50 (HT29 colon) > 100 µM | GI50 (T-47D breast) > 100 µM | GI50 (MDA-MB-231 breast) > 100 µM | GI50 (NCI/ADR-RES ovarian) > 100 µM | GI50 (UACC-62 melanoma) > 100 µM | GI50 (SF-268 CNS) > 100 µM | GI50 (OVCAR-5 ovarian) > 100 µM | GI50 (CAKI-1 renal) > 100 µM | GI50 (RPMI-8226 leukemia) 75.2 µM | GI50 (PC-3 prostate) > 100 µM | GI50 (SK-MEL-5 melanoma) > 100 µM | GI50 (UO-31 renal) > 100 µM | GI50 (MALME-3M melanoma) > 100 µM | GI50 (MCF7 breast) > 100 µM | GI50 (SNB-75 CNS) 12.9 µM | GI50 (LOX IMVI melanoma) > 100 µM | GI50 (UACC-257 melanoma) > 100 µM | GI50 (MDA-MB-435) > 100 µM | GI50 (NCI-H460 lung) > 100 µM | GI50 (SK-OV-3 ovarian) 44.1 µM | GI50 (COLO 205 colon) > 100 µM | GI50 (HOP-62 NSCLC) > 100 µM | GI50 (SK-MEL-28 melanoma) > 100 µM | GI50 (SF-295 CNS) > 100 µM | GI50 (IGROV1 ovarian) > 100 µM | GI50 (HCC-2998 colon) > 100 µM | GI50 (NCI-H522 lung) > 100 µM | GI50 (KM12 colon) > 100 µM | GI50 (HCT-15 colon) > 100 µM | GI50 (HCT-116 colon) > 100 µM | GI50 (NCI-H226 lung) > 100 µM | GI50 (HS 578T breast) > 100 µM | GI50 (U251 CNS) > 100 µM | GI50 (ACHN renal) > 100 µM | GI50 (CCRF-CEM leukemia) > 100 µM | GI50 (OVCAR-4 ovarian) > 100 µM | GI50 (OVCAR-8 ovarian) > 100 µM | GI50 (SN12C renal) > 100 µM | GI50 (SK-MEL-2 melanoma) > 100 µM | GI50 (DU-145 prostate) > 100 µM | GI50 (EKVX NSCLC) > 100 µM
active: GI50 (SR leukemia) 0.061 µM
91.6 µM: TGI (SNB-75 CNS)

O=C(Nc1nc2c(s1)CCc1c-2c(Br)n(Cc2ccccc2)c1Br)c1ccccc1
7.85 µM: TGI (TK-10 renal)
64.4 µM: TGI (MOLT-4 leukemia)
17.3 µM: TGI (OVCAR-3 ovarian)
70.7 µM: TGI (SK-MEL-28 melanoma)
11.6 µM: TGI (SK-MEL-5 melanoma)
28.9 µM: TGI (A498 renal)
6.72 µM: TGI (HOP-62 NSCLC)
3.38 µM: TGI (SF-539 CNS)
9.16 µM: TGI (NCI-H226 lung)
19.7 µM: TGI (T-47D breast)
inactive: GI50 (TK-10 renal) 2.98 µM | GI50 (M14 melanoma) 9.94 µM | GI50 (A549 NSCLC) 3.12 µM | GI50 (OVCAR-3 ovarian) 4.24 µM | GI50 (786-0 renal) 2.73 µM | GI50 (K-562 leukemia) 22.9 µM | GI50 (HL-60(TB) leukemia) 45.3 µM | GI50 (BT-549 breast) 2.53 µM | GI50 (SNB-19 CNS) 7.41 µM | GI50 (SF-539 CNS) 1.55 µM | GI50 (SW-620 colon) 21.4 µM | GI50 (NCI-H23 lung) 8.03 µM | GI50 (HT29 colon) 4.71 µM | GI50 (T-47D breast) 1.4 µM | GI50 (MDA-MB-231 breast) 2.16 µM | GI50 (NCI/ADR-RES ovarian) 21 µM | GI50 (UACC-62 melanoma) 4.66 µM | GI50 (SF-268 CNS) 6.03 µM | GI50 (HOP-92 NSCLC) 1.2 µM | GI50 (OVCAR-5 ovarian) 47.3 µM | GI50 (CAKI-1 renal) 9.89 µM | GI50 (RPMI-8226 leukemia) 11.4 µM | GI50 (PC-3 prostate) 4.26 µM | GI50 (SK-MEL-5 melanoma) 2.17 µM | GI50 (UO-31 renal) 3.19 µM | GI50 (MOLT-4 leukemia) 22.7 µM | GI50 (MALME-3M melanoma) 2.57 µM | GI50 (MCF7 breast) 5.38 µM | GI50 (SNB-75 CNS) 1.77 µM | GI50 (LOX IMVI melanoma) 5.53 µM | GI50 (UACC-257 melanoma) 8.53 µM | GI50 (MDA-MB-435) 2.97 µM | GI50 (SR leukemia) 12.1 µM | GI50 (NCI-H460 lung) 3.82 µM | GI50 (SK-OV-3 ovarian) 3.23 µM | GI50 (COLO 205 colon) 8.05 µM | GI50 (HOP-62 NSCLC) 2.13 µM | GI50 (SK-MEL-28 melanoma) 4.34 µM | GI50 (SF-295 CNS) 3.01 µM | GI50 (IGROV1 ovarian) 2.68 µM | GI50 (HCC-2998 colon) > 100 µM | GI50 (NCI-H522 lung) 4.41 µM | GI50 (KM12 colon) 6.19 µM | GI50 (HCT-15 colon) 12.4 µM | GI50 (HCT-116 colon) 3.98 µM | GI50 (NCI-H226 lung) 1.87 µM | GI50 (U251 CNS) 3.42 µM | GI50 (ACHN renal) 1.88 µM | GI50 (RXF 393 renal) 2.01 µM | GI50 (OVCAR-4 ovarian) 1.8 µM | GI50 (OVCAR-8 ovarian) 3.91 µM | GI50 (SN12C renal) 10 µM | GI50 (A498 renal) 4.7 µM | GI50 (SK-MEL-2 melanoma) 3.47 µM | GI50 (DU-145 prostate) 5.19 µM
10.2 µM: TGI (MALME-3M melanoma)
32.6 µM: TGI (MDA-MB-231 breast)
7.54 µM: TGI (OVCAR-4 ovarian)
13.2 µM: TGI (SF-295 CNS)
8.01 µM: TGI (BT-549 breast)
16.3 µM: TGI (SK-OV-3 ovarian)
4.63 µM: TGI (HOP-92 NSCLC)
11.3 µM: TGI (U251 CNS)
19.6 µM: TGI (SK-MEL-2 melanoma)
4.74 µM: TGI (SNB-75 CNS)
33.4 µM: TGI (IGROV1 ovarian)
7.35 µM: TGI (ACHN renal)
32.5 µM: TGI (NCI-H522 lung)
> 100 µM: TGI (M14 melanoma) | TGI (K-562 leukemia) | TGI (HL-60(TB) leukemia) | TGI (SNB-19 CNS) | TGI (SW-620 colon) | TGI (NCI-H23 lung) | TGI (HT29 colon) | TGI (NCI/ADR-RES ovarian) | TGI (UACC-62 melanoma) | TGI (SF-268 CNS) | TGI (OVCAR-5 ovarian) | TGI (CAKI-1 renal) | TGI (RPMI-8226 leukemia) | TGI (PC-3 prostate) | TGI (MCF7 breast) | TGI (LOX IMVI melanoma) | TGI (UACC-257 melanoma) | TGI (SR leukemia) | TGI (NCI-H460 lung) | TGI (COLO 205 colon) | TGI (HCC-2998 colon) | TGI (KM12 colon) | TGI (HCT-15 colon) | TGI (HCT-116 colon) | TGI (OVCAR-8 ovarian) | TGI (SN12C renal) | TGI (DU-145 prostate)
7.69 µM: TGI (RXF 393 renal)
23.1 µM: TGI (A549 NSCLC)
39.9 µM: TGI (UO-31 renal)
11.9 µM: TGI (786-0 renal)
35.9 µM: TGI (MDA-MB-435)
